In ChEMBL document CHEMBL1201862, “PubChem BioAssay data set” (2004):
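Compound exposure: 48 hours, 5 concentrations, 96-well plates. Abbreviation: GI50, concentration required for 50% inhibition of growth.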 Active and inactive are the calls of the source. Cut-off read from the data, not from the text of the source: active = GI50 up to about 1.1 µM and inactive = higher.

Assays:
Assay in all cases: growth of human tumour cells (NCI), 48 h
HOP-62 = test system: HOP-62
HOP-92 = test system: HOP-92
HT-29 = test system: HT-29
EKVX = test system: EKVX
Hs-578T = test system: Hs-578T
PC-3 = test system: PC-3
HCT-116 = test system: HCT-116
KM12 = test system: KM12
UO-31 = test system: UO-31
MOLT-4 = test system: MOLT-4
CCRF-CEM = test system: CCRF-CEM
SK-MEL-28 = test system: SK-MEL-28
RXF 393 = test system: RXF 393
UACC-257 = test system: UACC-257
MCF7 = test system: MCF7
COLO 205 = test system: COLO 205
NCI-H226 = test system: NCI-H226
UACC-62 = test system: UACC-62
SR = test system: SR
SNB-75 = test system: SNB-75
RPMI-8226 = test system: RPMI-8226
NCI-H23 = test system: NCI-H23
786-0 = test system: 786-0
M14 = test system: M14
SW-620 = test system: SW-620
SK-MEL-5 = test system: SK-MEL-5
SNB-19 = test system: SNB-19
A549 = test system: A549
BT-549 = test system: BT-549
HCC 2998 = test system: HCC 2998
Malme-3M = test system: Malme-3M
SN12C = test system: SN12C
HL-60 = test system: HL-60
TK-10 = test system: TK-10
MDA-MB-231 = test system: MDA-MB-231
OVCAR-8 = test system: OVCAR-8
K562 = test system: K562
HCT-15 = test system: HCT-15
IGROV-1 = test system: IGROV-1
SK-MEL-2 = test system: SK-MEL-2
ACHN = test system: ACHN
SK-OV-3 = test system: SK-OV-3
CAKI-1 = test system: CAKI-1
OVCAR-3 = test system: OVCAR-3
LOX IMVI = test system: LOX IMVI
OVCAR-5 = test system: OVCAR-5
SF-268 = test system: SF-268
SF-295 = test system: SF-295
U-251 = test system: U-251
NCI-H460 = test system: NCI-H460
MDA-MB-435 = test system: MDA-MB-435
A498 = test system: A498
NCI-H522 = test system: NCI-H522
OVCAR-4 = test system: OVCAR-4
SF-539 = test system: SF-539
NCI/ADR-RES = test system: NCI/ADR-RES
DU-145 = test system: DU-145

Measured: GI50

CCOC(=O)c1ccc(/N=C2\S/C(=C\C(=S)Nc3ccccc3)N(c3ccccc3)\C2=N/c2ccc(C(=O)OCC)cc2)cc1
inactive: HOP-62 > 100 µM | HOP-92 22.8 µM | HT-29 > 100 µM | EKVX > 100 µM | Hs-578T 62.4 µM | PC-3 > 100 µM | HCT-116 27.2 µM | KM12 > 100 µM | UO-31 > 100 µM | MOLT-4 > 100 µM | CCRF-CEM > 100 µM | SK-MEL-28 95.5 µM | RXF 393 81.5 µM | UACC-257 94.2 µM | MCF7 > 100 µM | COLO 205 > 100 µM | NCI-H226 > 100 µM | UACC-62 > 100 µM | SR > 100 µM | SNB-75 34.5 µM | RPMI-8226 > 100 µM | NCI-H23 > 100 µM | 786-0 82 µM | M14 34.6 µM | SW-620 > 100 µM | SK-MEL-5 40.7 µM | SNB-19 > 100 µM | A549 > 100 µM | BT-549 62.7 µM | HCC 2998 > 100 µM | Malme-3M 21.6 µM | SN12C > 100 µM | HL-60 > 100 µM | TK-10 > 100 µM | MDA-MB-231 > 100 µM | OVCAR-8 > 100 µM | K562 > 100 µM | IGROV-1 > 100 µM | SK-MEL-2 > 100 µM
> 100 µM: HCT-15

CC1=NN(c2nc(N)nc(C/C(N)=N/O)n2)C(C)(C)C1
inactive: ACHN > 100 µM | SK-OV-3 > 100 µM | CAKI-1 > 100 µM | OVCAR-3 > 100 µM | LOX IMVI > 100 µM | HOP-62 > 100 µM | HOP-92 > 100 µM | HT-29 > 100 µM | EKVX > 100 µM | Hs-578T > 100 µM | HCT-116 > 100 µM | KM12 > 100 µM | UO-31 > 100 µM | OVCAR-5 > 100 µM | MOLT-4 > 100 µM | CCRF-CEM > 100 µM | SK-MEL-28 > 100 µM | UACC-257 > 100 µM | MCF7 > 100 µM | COLO 205 > 100 µM | NCI-H226 > 100 µM | UACC-62 > 100 µM | SNB-75 > 100 µM | RPMI-8226 > 100 µM | SF-268 > 100 µM | NCI-H23 > 100 µM | 786-0 > 100 µM | SF-295 > 100 µM | M14 > 100 µM | SW-620 > 100 µM | U-251 > 100 µM | NCI-H460 > 100 µM | SK-MEL-5 > 100 µM | SNB-19 > 100 µM | A549 > 100 µM | MDA-MB-435 > 100 µM | BT-549 > 100 µM | A498 > 100 µM | HCC 2998 > 100 µM | Malme-3M > 100 µM | NCI-H522 > 100 µM | OVCAR-4 > 100 µM | SN12C > 100 µM | HL-60 > 100 µM | SF-539 > 100 µM | TK-10 > 100 µM | MDA-MB-231 > 100 µM | OVCAR-8 > 100 µM | K562 > 100 µM | IGROV-1 > 100 µM | NCI/ADR-RES > 100 µM | DU-145 > 100 µM
> 100 µM: HCT-15

Cc1cc(NS(=O)(=O)c2ccc(/N=N/c3c(O)c(C(=O)O)cc4ccccc34)cc2)nc(C)n1
> 100 µM: HCT-15
inactive: ACHN > 100 µM | SK-OV-3 > 100 µM | CAKI-1 > 100 µM | OVCAR-3 > 100 µM | HOP-62 > 100 µM | HOP-92 > 100 µM | HT-29 > 100 µM | EKVX > 100 µM | Hs-578T > 100 µM | PC-3 > 100 µM | HCT-116 > 100 µM | KM12 > 100 µM | UO-31 > 100 µM | OVCAR-5 > 100 µM | MOLT-4 > 100 µM | CCRF-CEM > 100 µM | SK-MEL-28 > 100 µM | RXF 393 > 100 µM | UACC-257 > 100 µM | MCF7 > 100 µM | COLO 205 > 100 µM | NCI-H226 > 100 µM | UACC-62 > 100 µM | SR > 100 µM | SNB-75 > 100 µM | RPMI-8226 > 100 µM | SF-268 > 100 µM | 786-0 > 100 µM | SF-295 > 100 µM | M14 > 100 µM | SW-620 > 100 µM | U-251 > 100 µM | NCI-H460 > 100 µM | SK-MEL-5 > 100 µM | SNB-19 > 100 µM | A549 > 100 µM | MDA-MB-435 > 100 µM | BT-549 > 100 µM | HCC 2998 > 100 µM | Malme-3M > 100 µM | NCI-H522 > 100 µM | OVCAR-4 > 100 µM | HL-60 > 100 µM | SF-539 > 100 µM | TK-10 > 100 µM | MDA-MB-231 > 100 µM | OVCAR-8 > 100 µM | K562 > 100 µM | IGROV-1 > 100 µM | NCI/ADR-RES > 100 µM | SK-MEL-2 > 100 µM
